Experimental data: patent US20240084272A1, “CYTOCHROME P450 MONOOXYGENASES AND USES THEREOF” (THE UNIVERSITY OF BRITISH COLUMBIA, priority 2020, published 2024)

What was measured:
Format in all cases: cell-based, Camptotheca acuminata
[1] = tested on: Ca32229/CPT11H; assay: In vivo yeast biotransformation / substrate scope assay with CPT 11-hydroxylase; details: for Conversion rate (%): substrate converted to hydroxylated product, yeast in vivo assay, 1 L culture, calculated based on LCMS analysis; for acceptance as substrate / conversion: substrate scope, Example 4
Text: (§1) For heterologous expression of Flag-tagged CYP450s in yeast (Saccharomyces cerevisiae), the full-length coding region of each CYP450 candidate was cloned between SpeI and NcoI restriction sites of MCS1 of the dual plasmid pESC-Leu2d with a cytochrome P450 reductase (CPR) in MCS2 (Dang et al 2018, Nature Chemical Biology 14, 760-763; Rot al 2008, BMC biotechnology 8, 83) yielding pESC-Leu2d::CYP/CPR using In-Fusion cloning system (Takara Clontech). The resulted pESC-Leu2d::CYP/CPR was transformed to the protease-deficient yeast strain YPL 154C:Pep4KO, and yeast harbouring pESC-Leu2d::CPR was used as the negative control. To optimize HCPT production, Δerg6 Δtop1 yeast double mutant strain SMY75-1.4A43 was used, which was previously generated to allow better penetration of, and improved resistance to, topoisomerase I inhibitors such as CPT. The conditions for yeast culture, microsome preparation, and immunoblot analysis are further described below.
(§2) For screening in vivo CPT oxidation activities, 10 μM CPT was fed to 100-μL, cultures of YPLC 154C:Pep4KO yeast transformed with the vector for 48 h. The culture volume can be scaled up to 2 L with the camptothecin concentration up to 50 μM to produce sufficient products for structural characterization and/or semi-synthesis of camptothecin derivatives. Standard in vitro assays were performed at 30 C for 1 hour in 100 μL of 100 mM HEPES-NaOH (pH 7.5) containing […] of total microsomal proteins, 50 μM substrate (FIGS. 6) and 250 μM NADPH on a gyratory shaker with agitation (750 rpm). Reactions were stopped by adding 800 μL methanol. The reaction mixture was extracted twice with methanol to precipitate and remove proteins. The supernatant was subjected to LC-MS/MS analysis
(§3) For routine yeast culture, the transgenic yeast strain was inoculated in 2 mL of synthetic complete (SC) medium lacking leucine (SC-Leu) containing 2% (w/v) glucose and cultured overnight at 30 °C and 250 rpm. The culture was subsequently diluted 100-fold to an OD600 of 0.05 in SC-Leu supplemented with 2% (w/v) glucose and cultured for 16 hr. Yeast was then harvested and sub-cultured for 24 hr in YPA medium containing 2% (w/v) galactose to induce the production of recombinant CYP450s. Yeast cells were harvested by centrifugation and lysed for 2 min using a micro-bead beater (VWR) and 500-μm diameter glass beads in TES (0.6 M sorbitol in TE) buffer. The resulting lysate was subsequently centrifuged at 10,000 g for 15 min at 4 C. The supernatant was then transferred to a new tube and centrifuged at 40,000 g for 60 min at 4 C. Finally, the pellet containing microsomes was resuspended with TEG buffer (20% (v/v) glycerol in TE). Expression of Ca32229 and Ca32236 was confirmed by immunoblot analysis of microsomal fractions prepared from S. cerevisiae cultures harbouring the pESC-Leu2d::CPR/Ca32229 and pESC-Leu2d::CPR/Ca32236 vectors using α-FLAG M2 antibodies (ThermoFisher Scientific) detectable with SuperSignal West Pico Chemiluminescent Substrate (ThermoFisher Scientific) to probe epitope-tagged recombinant proteins (FIG. 6).
(§4) Enzyme assays were analyzed by ultra-performance liquid chromatography (UPLC) on a Xevo TQ-S Cronos Triple Quadrupole Mass Spectrometry (Waters). For all studies, chromatography was performed on an XBridge BEH XP (10×2.1 mm, 1.7 μm) column at a flow rate of 0.6 mL.min−1. The column was equilibrated in solvent A (0.1% formic acid) and the following elution conditions were used: 0 min, 5% B (100% acetonitrile); from 0 to 3.5 min, 35% B; from 3.5 min to 3.75 min, 100% B; 3.75 min to 4.75, 100% B; 4.75 to 6 min, 5% B to re-equilibrate the column. Data were analyzed with MassLynx and TargetLynx (Waters).
(§5) A calibration curve using camptothecin from 0-50 nM was made for quantification. Peaks areas of LC-MS chromatograms were calculated using MassLynx and TargetLynx from Waters and normalized. […]

[2] = tested on: camptothecin hydroxylases (CPTHs), Ca32236 (CPT 10-hydroxylase) and Ca32229 (CPT 11-hydroxylase); assay: In vivo conversion in yeast expressing CPT hydroxylases (enzyme not distinguished); details: for acceptance as substrate (substrate specificity, FIG. 9): Ca32236 and Ca32229, different conversion rates; for conversion rate to hydroxylated product, scale-up: 50 μM substrate, after 48-hr inoculation, LCMS
Text: as §1, §2
A calibration curve using camptothecin from 0-50 nM was made for quantification. Peaks areas of LC-MS chromatograms were calculated using MassLynx and TargetLynx from Waters and normalized. The amount of substrate consumption, product formation, conversion, and total product yield was quantified using corresponding calibration curves.
To generate sufficient amounts of HCPTs (10 and 11HCPT) and 7-ethyl-HCPT (7-ethyl-10 and 11HCPT) for the synthesis of topotecan, irinotecan and other compounds, enzymatic reactions was scaled up. The transgenic yeast strain was inoculated in 2 mL of synthetic complete medium lacking leucine (SC-Leu) containing 2% (w/v) glucose and cultured overnight at 30° C. and 275 rpm. The culture was subsequently diluted to an OD600 of 0.05 in SC-Leu supplemented with 2% (w/v) glucose and cultured for 16 hr. The yeast was then harvested and sub-cultured for 48 hr in YPA medium containing 2% (w/v) galactose, and 10% glycerol to induce the production of recombinant CYP450s. CPT or 7-ethyl-CPT substrate was fed directly into the culture to reach a final concentration of 50 μM as soon as the yeast was switched from SC-Leu to YPA medium. After 48-hr inoculation, a conversion rate of approximately 70% from CPT or 7-ethyl-CPT to its hydroxylated product was obtained and confirmed by LCMS analysis. The supernatant was collected by centrifugation at 4000 rpm, for 5 minutes. HCPT and 7-ethyl-HCPT were extracted out of reaction matrix by liquid-liquid extraction with ethyl acetate and chloroform, respectively. The solvent was removed by using a rotary evaporator to obtain crude HCPT and 7-ethyl-HCPT substrates for chemical synthesis to topotecan and irinotecan. HCPT and 7-ethyl-HCPT were purified by semi-preparative HPLC prior to the synthesis of derivatives.
A key advantage of the cytochrome P450 monooxygenase enzymes lies in the opportunity to functionalize the inert C—H bond and to further diversify the products to obtain valuable CPT-based scaffolds. […] First, the enzymatic conversion of CPT to HCPTs in yeast expressing CPT hydroxylases was optimized. The initial in vivo conversion rate maximized at 10% (FIG. 2), possibly because CPT is insoluble and the native yeast topoisomerase I is sensitive to CPT. […]

[3] = tested on: Ca32236/CPT10H; assay: In vivo yeast biotransformation / substrate scope assay with CPT 10-hydroxylase; details: for Conversion rate (%): substrate converted to hydroxylated product, yeast in vivo assay, 1 L culture, calculated based on LCMS analysis
Text: as §1, §2, §3, §4, §5

Row | Molecule | Conversion rate (%) [1] [%] | acceptance as substrate [1] | conversion [1] [%] | acceptance as substrate (substrate specificity, FIG. 9) [2] | Conversion rate (%) [3] [%] | conversion rate to hydroxylated product, scale-up [2] | initial in vivo conversion rate ([2]; CPT to HCPTs, before optimization) [%] | conversion in SMY75-1.4A yeast strain ([2]; SMY75-1.4A (Δerg6 Δtop1) yeast strain) | yield (conversion) after growth optimization ([2]; transgenic yeast in YPA medium with 2% galactose and 10% glycerol for 48 hrs) | acceptance as substrate ([3]; substrate scope, Example 4) | conversion rate ([3]; substrate scope, Example 4) [%]
1 | CCC1(O)C(=O)OCc2c1cc1n(c2=O)Cc2cc3cc(O)ccc3nc2-1 (stereo not drawn) [10-HydroxyCPT, 10-hydroxycamptothecin] | 11 | accepted | 7 | accepted as substrates |  |  |  |  |  |  | 
2 | CC[C@@]1(O)C(=O)OCc2c1cc1n(c2=O)Cc2cc3ccccc3nc2-1 [CPT, camptothecin] | 62 |  |  | accepted as substrates | 67 | approximately 70% | ≤ 10 | up to 67% | up to 40% |  | 
3 | CCc1c2c(nc3ccccc13)-c1cc3c(c(=O)n1C2)COC(=O)[C@]3(O)CC [Compound 7-EthylCPT, 7-ethylcamptothecin] | 32 | accepted |  | accepted as substrates | 8 | approximately 70% |  |  |  | accepted | 
4 | CC[C@@]1(O)C(=O)OCc2c1cc1n(c2=O)Cc2cc3c(N)cccc3nc2-1 [Compound 9-AminoCPT, 9-amino-camptothecin] | 9 |  | 9 | accepted as substrates | 9 |  |  |  |  |  | 9
5 | CCC1(O)C(=O)OCc2c1cc1n(c2=O)Cc2cc3ccc(O)cc3nc2-1 (stereo not drawn) [Compound 11HCPT, 11-hydroxycamptothecin] |  |  |  |  |  |  |  |  |  | not accepted | 
6 | evodiamine |  |  |  | accepted as substrates |  |  |  |  |  |  | 
